# Experimental data as given in patent US10993923B2, “Method for ameliorating fibrosis using 1-[4-chloro-3-(trifluoromethyl)phenyl]-3-[3-(4-cyanophenoxy)phenyl]urea” (priority 2016, dated 2021).
# Legend:
# [1] = tested on: BDL-induced cholestasis fibrosis in mice; assay: Bile duct ligation (BDL) fibrosis mice prevention model; assay type: in vivo, Balb/C mice; conditions: 10 mg/kg from day 1 until sacrifice on day 14 of BDL; FIG. 13A, 13B
# Source text: In the bile duct ligation (BDL) mouse model, the common bile duct of Balb/C mice was double-ligated and excised. Mice were fed daily with vehicle or 1-[4-chloro-3-(trifluoromethyl)phenyl]-3-[3-(4-cyanophenoxy)phenyl]urea on day 1 or day 8 until they were sacrificed on day 14.
# (§1) The mice liver samples were stored in 10% formaldehyde, dehydrated with gradient alcohol, embedded in paraffin blocks, sectioned to a thickness of 3 μm, placed on glass slides, and stained with Picrosirius Red Stain kit (ScyTek, USA), following the manufacturer's instructions. The severity of liver fibrosis was graded according to the Ishak fibrosis score. Quantitative collagen-positive area (qCPA) was determined by densitometry via ImageJ software. Hepatic hydroxyproline concentrations were measured by the hydroxyproline assay kit (Biovision, USA), following the manufacturer's instructions Immunohistochemistry was performed by the Leica BOND-MAX automatic chromatograph (Leica Biosystems, Germany), following the manufacturer's instructions.
# [2] = tested on: CCl4-induced hepatic fibrosis in mice; assay: CCl4-induced hepatic fibrosis mice prevention model; assay type: in vivo, male C57BL/6J mice; conditions: concurrently administered with CCl4 for 4 weeks; FIG. 11A-11E
# Source text: In male C57BL/6J mice, liver fibrosis was induced by carbon tetrachloride (CCl4). The mice were given peritoneal injection of carbon tetrachloride for 4 or 8 weeks every two weeks.
# as §1
# [3] = tested on: mouse fibroblasts (NIH3T3 cell line); assay: Cell viability assay (WST-1), NIH3T3 fibroblasts; assay type: cell-based; conditions: FIG. 7A
# Method: Murine NIH3T3 fibroblasts and human lung epithelial cells (A549 cells) were purchased from the Bioresource Collection and Research Center (Hsinchu, Taiwan). Cells were cultured in Dulbecco's modified eagle medium (DMEM) containing 10% fetal bovine serum (FBS), 100 μg/mL penicillin, 100 μg/mL streptomycin. Cells were cultured at 37° C. in a humidified atmosphere of 5% CO2 and passaged every 4 to 5 days at 1:4 ratios.
# Murine NIH3T3 fibroblasts were seeded into 96-well plates (1×10^3 cells/well). To measure the cell viability and the cell proliferation, 10% WST-1 (cell proliferation reagent WST-1, Roche) was added to each well and reacted for 3 hours. The reaction was catalyzed by mitochondrial reductase in active cells and the optical density (OD) was calculated by measuring the absorbance at 450 nm via a Bio-Rad ELISA analyzer.
compound,measurement,setting,value
N#Cc1ccc(Oc2cccc(NC(=O)Nc3ccc(Cl)c(C(F)(F)F)c3)c2)cc1 [1-[4-chloro-3-(trifluoromethyl)phenyl]-3-[3-(4-cyanophenoxy)phenyl]urea],quantitative collagen-positive area (qCPA),[1],significantly reduced
same,"hepatic fibrosis (Picrosirius Red staining, qCPA, Ishak fibrosis score, α-SMA expression, hydroxyproline concentration)",[2],significant fibrosis regression
same,survival rate of mouse fibroblasts,[3],reduced the survival rate of mouse fibroblasts (NIH3T3 cell line) in a dose-dependent manner
